Results as given in patent US20160031925A1, “AZITHROMYCIN ANTIMICROBIAL DERIVATIVES WITH NON-ANTIBIOTIC PHARMACEUTICAL EFFECT” (priority 2013, published 2016).
Like-named read-outs stand apart in the source and are kept apart here.

Key:
Format in all cases: cell-based
[1] = system: Pseudomonas aeruginosa ATCC 9027; experiment: Antimicrobial disk susceptibility test (CLSI M2-A9), P. aeruginosa
Procedure: (§1) Test for the antimicrobial activity of the novel compounds may be performed according to the standards of Clinical and Laboratory Standards Institute, Performance Standards for Antimicrobial Disk Susceptibility Tests; approved Standard; M2-A), vol. 26 NO. 1 9th ed.
as §1, with “A test for” for “Test for”, “compounds were” for “compounds may be”, “ed. The samples were dissolved in 10 ml of sterile Milli-Q water by magnetic stirring overnight at 20° C.” for “ed.”
(§2) Two doses of the samples were tested in duplicate, a) and b). The size of the inhibition zones were measured in mm after incubation.

[2] = system: Escherichia coli ATCC 8739; experiment: Antimicrobial disk susceptibility test (CLSI M2-A9), E. coli
Procedure: as §1
as §1, with “A test for” for “Test for”, “compounds were” for “compounds may be”, “ed. The samples were dissolved in 10 ml of sterile Milli-Q water by magnetic stirring overnight at 20° C.” for “ed.”
as §2

[3] = system: Klebsiella pneumonia ATCC 35657; experiment: Antimicrobial disk susceptibility test (CLSI M2-A9), K. pneumonia
Procedure: as §1
as §1, with “A test for” for “Test for”, “compounds were” for “compounds may be”, “ed. The samples were dissolved in 10 ml of sterile Milli-Q water by magnetic stirring overnight at 20° C.” for “ed.”
as §2

[4] = system: Staphylococcus aureus ATTC 6538; experiment: Antimicrobial disk susceptibility test (CLSI M2-A9), S. aureus
Procedure: as §1
as §1, with “A test for” for “Test for”, “compounds were” for “compounds may be”, “ed. The samples were dissolved in 10 ml of sterile Milli-Q water by magnetic stirring overnight at 20° C.” for “ed.”
as §2

[5] = Pseudomonas aeruginosa, ATCC9027; 5 μg/disk, duplicate a); read-out: size of the inhibition zone, P. aeruginosa a)
[6] = Pseudomonas aeruginosa, ATCC9027; 5 μg/disk, duplicate b); read-out: size of the inhibition zone, P. aeruginosa b)
[7] = Pseudomonas aeruginosa, ATCC9027; 10 μg/disk, duplicate a); read-out: size of the inhibition zone, P. aeruginosa a)
[8] = Pseudomonas aeruginosa, ATCC9027; 10 μg/disk, duplicate b); read-out: size of the inhibition zone, P. aeruginosa b)
[9] = Escherichia coli, ATCC8739; 5 μg/disk, duplicate a); read-out: size of the inhibition zone, E. coli a)
[10] = Escherichia coli, ATCC8739; 5 μg/disk, duplicate b); read-out: size of the inhibition zone, E. coli b)
[11] = Escherichia coli, ATCC8739; 10 μg/disk, duplicate a); read-out: size of the inhibition zone, E. coli a)
[12] = Escherichia coli, ATCC8739; 10 μg/disk, duplicate b); read-out: size of the inhibition zone, E. coli b)
[13] = Klebsiella pneumoniae, ATCC35657; 5 μg/disk, duplicate a); read-out: size of the inhibition zone, K. pneumonia a)
[14] = Klebsiella pneumoniae, ATCC35657; 5 μg/disk, duplicate b); read-out: size of the inhibition zone, K. pneumonia b)
[15] = Klebsiella pneumoniae, ATCC35657; 10 μg/disk, duplicate a); read-out: size of the inhibition zone, K. pneumonia a)
[16] = Klebsiella pneumoniae, ATCC35657; 10 μg/disk, duplicate b); read-out: size of the inhibition zone, K. pneumonia b)
[17] = Staphylococcus aureus, ATTC6538; 5 μg/disk, duplicate a); read-out: size of the inhibition zone, S. aureus a)
[18] = Staphylococcus aureus, ATTC6538; 5 μg/disk, duplicate b); read-out: size of the inhibition zone, S. aureus b)
[19] = Staphylococcus aureus, ATTC6538; 10 μg/disk, duplicate a); read-out: size of the inhibition zone, S. aureus a)
[20] = Staphylococcus aureus, ATTC6538; 10 μg/disk, duplicate b); read-out: size of the inhibition zone, S. aureus b)

| SMILES | zone of inhibition at 5 µg/disc [1, 5] [mm] | zone of inhibition at 5 µg/disc [1, 6] [mm] | zone of inhibition at 10 µg/disc [1, 7] [mm] | zone of inhibition at 10 µg/disc [1, 8] [mm] | zone of inhibition at 5 µg/disc [2, 9] [mm] | zone of inhibition at 5 µg/disc [2, 10] [mm] | zone of inhibition at 10 µg/disc [2, 11] [mm] | zone of inhibition at 10 µg/disc [2, 12] [mm] | zone of inhibition at 5 µg/disc [3, 13] [mm] | zone of inhibition at 5 µg/disc [3, 14] [mm] | zone of inhibition at 10 µg/disc [3, 15] [mm] | zone of inhibition at 10 µg/disc [3, 16] [mm] | zone of inhibition at 5 µg/disc [4, 17] [mm] | zone of inhibition at 5 µg/disc [4, 18] [mm] | zone of inhibition at 10 µg/disc [4, 19] [mm] | zone of inhibition at 10 µg/disc [4, 20] [mm] | size of the inhibition zone, P. aeruginosa a) ([1]; 5 μg/disk, duplicate a)) [mm] | size of the inhibition zone, P. aeruginosa b) ([1]; 5 μg/disk, duplicate b)) [mm] | size of the inhibition zone, P. aeruginosa a) ([1]; 10 μg/disk, duplicate a)) [mm] | size of the inhibition zone, P. aeruginosa b) ([1]; 10 μg/disk, duplicate b)) [mm] | further results |
| --- | --- | --- | --- | --- | --- | --- | --- | --- | --- | --- | --- | --- | --- | --- | --- | --- | --- | --- | --- | --- | --- |
| CC[C@H]1OC(=O)[C@H](C)C(O[C@H]2C[C@@](C)(OC)[C@@H](O)[C@H](C)O2)[C@H](C)[C@@H](OC2O[C@H](C)C[C@H](N(C)C)[C@H]2C)[C@](C)(O)C[C@@H](C)CN(C)[C@H](C)[C@@H](O)[C@]1(C)O (stereo partly drawn) [PP001] | < 1 | < 1 | < 1 | < 1 | < 1 | < 1 | < 1 | < 1 | < 1 | < 1 | < 1 | < 1 | < 1 | < 1 | < 1 | < 1 | – | – | – | – | – |
| CC[C@H]1OC(=O)[C@H](C)C(O[C@H]2C[C@@](C)(OC)[C@@H](C)[C@H](C)O2)[C@H](C)[C@@H](OC2O[C@H](C)C[C@H](N(C)C)[C@H]2O)[C@](C)(O)C[C@@H](C)CN(C)[C@H](C)[C@@H](O)[C@]1(C)O (stereo partly drawn) [PP002] | < 1 | < 1 | < 1 | < 1 | < 1 | < 1 | < 1 | < 1 | < 1 | < 1 | < 1 | < 1 | < 1 | < 1 | < 1 | < 1 | – | – | – | – | – |
| CCC1OC(=O)C(C)C(OC2CC(C)(OC)C(C)C(C)O2)C(C)C(OC2OC(C)CC(N(C)C)C2C)C(C)(O)CC(C)CN(C)C(C)C(O)C1(C)O (stereo not drawn) [PP003] | – | – | – | – | – | – | – | – | – | – | – | – | – | – | – | – | <1 | <1 | <1 | <1 | size of the inhibition zone, E. coli a) ([2]; 5 μg/disk, duplicate a)): <1 mm; size of the inhibition zone, E. coli b) ([2]; 5 μg/disk, duplicate b)): <1 mm; size of the inhibition zone, E. coli a) ([2]; 10 μg/disk, duplicate a)): <1 mm; size of the inhibition zone, E. coli b) ([2]; 10 μg/disk, duplicate b)): <1 mm; size of the inhibition zone, K. pneumonia a) ([3]; 5 μg/disk, duplicate a)): <1 mm; size of the inhibition zone, K. pneumonia b) ([3]; 5 μg/disk, duplicate b)): <1 mm; size of the inhibition zone, K. pneumonia a) ([3]; 10 μg/disk, duplicate a)): <1 mm; size of the inhibition zone, K. pneumonia b) ([3]; 10 μg/disk, duplicate b)): <1 mm; size of the inhibition zone, S. aureus a) ([4]; 5 μg/disk, duplicate a)): <1 mm; size of the inhibition zone, S. aureus b) ([4]; 5 μg/disk, duplicate b)): <1 mm; size of the inhibition zone, S. aureus a) ([4]; 10 μg/disk, duplicate a)): <1 mm; size of the inhibition zone, S. aureus b) ([4]; 10 μg/disk, duplicate b)): <1 mm |
| CC[C@H]1OC(=O)[C@H](C)C(O[C@H]2C[C@@](C)(OC)C[C@H](C)O2)[C@H](C)[C@@H](OC2O[C@H](C)C[C@H](N(C)C)[C@H]2O)[C@](C)(O)C[C@@H](C)CN(C)[C@H](C)[C@@H](O)[C@]1(C)O (stereo partly drawn) [PP004] | < 1 | < 1 | < 1 | < 1 | < 1 | < 1 | < 1 | < 1 | < 1 | < 1 | < 1 | < 1 | < 1 | < 1 | < 1 | < 1 | – | – | – | – | – |
| CC[C@H]1OC(=O)[C@H](C)C(O[C@H]2C[C@@](C)(OC)[C@@H](O)[C@H](C)O2)[C@H](C)[C@@H](OC2C[C@@H](N(C)C)C[C@@H](C)O2)[C@](C)(O)C[C@@H](C)CN(C)[C@H](C)[C@@H](O)[C@]1(C)O (stereo partly drawn) [PP005] | < 1 | < 1 | < 1 | < 1 | < 1 | < 1 | < 1 | < 1 | < 1 | < 1 | < 1 | < 1 | < 1 | < 1 | < 1 | < 1 | – | – | – | – | – |
| CCC1OC(=O)C(C)C(OC2CC(C)(OC)CC(C)O2)C(C)C(OC2CC(N(C)C)CC(C)O2)C(C)(O)CC(C)CN(C)C(C)C(O)C1(C)O (stereo not drawn) [PP006] | – | – | – | – | – | – | – | – | – | – | – | – | – | – | – | – | <1 | <1 | <1 | <1 | size of the inhibition zone, E. coli a) ([2]; 5 μg/disk, duplicate a)): <1 mm; size of the inhibition zone, E. coli b) ([2]; 5 μg/disk, duplicate b)): <1 mm; size of the inhibition zone, E. coli a) ([2]; 10 μg/disk, duplicate a)): <1 mm; size of the inhibition zone, E. coli b) ([2]; 10 μg/disk, duplicate b)): <1 mm; size of the inhibition zone, K. pneumonia a) ([3]; 5 μg/disk, duplicate a)): <1 mm; size of the inhibition zone, K. pneumonia b) ([3]; 5 μg/disk, duplicate b)): <1 mm; size of the inhibition zone, K. pneumonia a) ([3]; 10 μg/disk, duplicate a)): <1 mm; size of the inhibition zone, K. pneumonia b) ([3]; 10 μg/disk, duplicate b)): <1 mm; size of the inhibition zone, S. aureus a) ([4]; 5 μg/disk, duplicate a)): <1 mm; size of the inhibition zone, S. aureus b) ([4]; 5 μg/disk, duplicate b)): <1 mm; size of the inhibition zone, S. aureus a) ([4]; 10 μg/disk, duplicate a)): <1 mm; size of the inhibition zone, S. aureus b) ([4]; 10 μg/disk, duplicate b)): <1 mm |
